According to PubChem BioAssay (NCI):
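Values below derive from 48-hour exposures of cells grown in 96-well plates, with endpoints linearly interpolated between the two concentrations bracketing the appropriate inhibition level. The concentration for 50% growth inhibition is given as GI50. The concentration for full growth arrest is given as TGI.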

Experiments:
Experiment in all cases: NCI-60 cell line screen, 48 h
EKVX NSCLC = system: EKVX NSCLC
HL-60(TB) leukemia = system: HL-60(TB) leukemia
HOP-62 NSCLC = system: HOP-62 NSCLC
IGROV1 ovarian = system: IGROV1 ovarian
NCI-H226 lung = system: NCI-H226 lung
OVCAR-5 ovarian = system: OVCAR-5 ovarian
SF-295 CNS = system: SF-295 CNS
SN12C renal = system: SN12C renal
SW-620 colon = system: SW-620 colon
U251 CNS = system: U251 CNS

Row | SMILES | TGI (EKVX NSCLC) | TGI (HL-60(TB) leukemia) | TGI (HOP-62 NSCLC) | TGI (IGROV1 ovarian) | TGI (NCI-H226 lung) | TGI (OVCAR-5 ovarian) | TGI (SF-295 CNS) | TGI (SN12C renal) | TGI (SW-620 colon) | TGI (U251 CNS) | GI50 (EKVX NSCLC) | GI50 (HL-60(TB) leukemia) | GI50 (HOP-62 NSCLC) | GI50 (IGROV1 ovarian) | GI50 (NCI-H226 lung) | GI50 (OVCAR-5 ovarian) | GI50 (SF-295 CNS) | GI50 (SW-620 colon) | GI50 (U251 CNS)
1 | Cc1ccc(NC(=O)CC/C(CC(=O)C(C)(C)C)=N/NC(=O)c2cc3ccccc3cc2O)cc1C | > 100000 nM | > 100000 nM | > 100000 nM | > 100000 nM | > 100000 nM | > 100000 nM | > 100000 nM | > 100000 nM | > 100000 nM | > 100000 nM | – | – | – | – | – | – | – | – | –
2 | CCC12CCC[C@@]13C=C[C@H](O3)C(C)(C)C2=O (some centres undefined) | > 100000 nM | > 100000 nM | > 100000 nM | > 100000 nM | > 100000 nM | > 100000 nM | > 100000 nM | > 100000 nM | > 100000 nM | > 100000 nM | – | – | – | – | – | – | – | – | –
3 | O=C1c2ccccc2-c2c1c1ccccc1c(=O)n2CCCNCCNCCCn1c2c(c3ccccc3c1=O)C(=O)c1ccccc1-2 | 2880 nM | > 100000 nM | 582 nM | > 32900 nM | 1980 nM | 2930 nM | 2320 nM | 1810 nM | 258 nM | 2330 nM | 1230 nM | 3510 nM | < 17.2 nM | < 36.7 nM | < 26.7 nM | 1290 nM | 78.2 nM | < 10 nM | 118 nM
